These are literature values, as cited in patent US8632986B2, “Methods and kits for detection of toxemia” (priority 2008, dated 2014).

The target of this data set is albumin (Homo sapiens, UniProt P02768). The settings on record: general statement.
Sequence of albumin (P02768 25-609, species assumed): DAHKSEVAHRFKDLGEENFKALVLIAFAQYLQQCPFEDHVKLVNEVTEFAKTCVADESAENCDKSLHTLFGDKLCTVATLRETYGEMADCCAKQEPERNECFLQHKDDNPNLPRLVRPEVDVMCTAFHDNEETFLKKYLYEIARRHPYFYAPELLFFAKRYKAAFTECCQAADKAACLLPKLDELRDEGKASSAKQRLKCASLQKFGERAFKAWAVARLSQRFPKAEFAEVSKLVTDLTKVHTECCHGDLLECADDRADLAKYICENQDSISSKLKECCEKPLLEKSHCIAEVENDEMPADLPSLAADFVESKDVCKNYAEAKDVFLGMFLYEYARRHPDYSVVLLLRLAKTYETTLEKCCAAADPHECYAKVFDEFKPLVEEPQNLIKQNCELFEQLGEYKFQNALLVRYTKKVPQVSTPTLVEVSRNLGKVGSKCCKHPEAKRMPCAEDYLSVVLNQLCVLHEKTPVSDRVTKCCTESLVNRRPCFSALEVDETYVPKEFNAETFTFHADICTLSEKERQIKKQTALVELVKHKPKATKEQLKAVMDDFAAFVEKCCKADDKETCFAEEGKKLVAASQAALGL

`CCCCCCCCCCCCCCCCCC(=O)O` [unlabeled stearic acid, stearic acid]: the binding constant entry was “about 10^9 mol^−1”.
